From US11814445B2, “Cyclic polypeptides for PCSK9 inhibition” (Ra Pharmaceuticals, Inc., priority 2018, dated 2023)
pIC50: −log10 of the molar value. Numbered stars: 1 amine (or outer) side, 2 acyl side, 3 side chain; on linkers, the order of the positions; unused ones are H or OH. Bridge positions count the residues as written; N and C are the ends. Square brackets hold non-standard residues; d marks the D form. Peptide text beside a SMILES is read from it. ξ: configuration not given here. Trp(5-F) = N[C@@H](Cc1c[nH]c2ccc(F)cc12)C(=O)O; X8 = O=C(CCCCCSCc1cccc(CSCCN[*:1])c1)[*:2]; X9 = O=C(CCCCCSCc1ccc(CSCCN[*:1])cc1)[*:2]; Phe(4-CN) = N#Cc1ccc(C[C@H](N)C(=O)O)cc1; Phe(4-Cl) = N[C@@H](Cc1ccc(Cl)cc1)C(=O)O; X1 = O=C(CCSCc1cccc(CSCCN[*:1])c1)[*:2]; 1Nal = N[C@@H](Cc1cccc2ccccc12)C(=O)O; 2Nal = N[C@@H](Cc1ccc2ccccc2c1)C(=O)O; Tiq1c(1S) = O=C(O)[C@H]1NCCc2ccccc21; mXylylene = c1cc(C[*:1])cc(C[*:2])c1; NMeY = CN[C@@H](Cc1ccc(O)cc1)C(=O)O; NMeF = CN[C@@H](Cc1ccccc1)C(=O)O; Tic = O=C(O)[C@@H]1Cc2ccccc2CN1; Cha = N[C@@H](CC1CCCCC1)C(=O)O; Tle = CC(C)(C)[C@H](N)C(=O)O; αMeP = C[C@@]1(C(=O)O)CCCN1; Pip = O=C(O)[C@@H]1CCCCN1; Nva = CCC[C@H](N)C(=O)O; Aib = CC(C)(N)C(=O)O; ξP = O=C(O)C1CCCN1; Mpa = O=C(O)CCS

Target: human PCSK9 / human LDLR EGFa domain (Homo sapiens, UniProt Q8NBP7)
Test: TR-FRET assay of inhibition of the PCSK9-LDLR protein-protein interaction
Assay type: binding
Conditions: 20 nM human PCSK9, 20 nM human LDLR EGFa domain, 2 hours room temperature
Procedure: A time-resolved fluorescence resonance energy (TR-FRET) assay was used to measure inhibition of the PCSK9-LDLR protein-protein interaction. Briefly, 20 nM avitag-biotinylated human PCSK9 was incubated with 20 nM his-tagged human LDLR EGFa domain in the presence of 5 nM LANCE Ulight Streptavidin (Perkin Elmer) and 5 nM europium-Anti-6×His (Perkin Elmer) for 2 hours covered at room temperature in buffer containing 50 mM HEPES, 150 mM NaCl, 5 mM CaCl2), 0.01% BSA and 0.01% Surfactant P20. Compounds were tested in dose-response and concentrations giving half-maximal inhibition calculated using a 4-parameter fit equation.

human PCSK9 / human LDLR EGFa domain, sequence (Q8NBP7 153-692): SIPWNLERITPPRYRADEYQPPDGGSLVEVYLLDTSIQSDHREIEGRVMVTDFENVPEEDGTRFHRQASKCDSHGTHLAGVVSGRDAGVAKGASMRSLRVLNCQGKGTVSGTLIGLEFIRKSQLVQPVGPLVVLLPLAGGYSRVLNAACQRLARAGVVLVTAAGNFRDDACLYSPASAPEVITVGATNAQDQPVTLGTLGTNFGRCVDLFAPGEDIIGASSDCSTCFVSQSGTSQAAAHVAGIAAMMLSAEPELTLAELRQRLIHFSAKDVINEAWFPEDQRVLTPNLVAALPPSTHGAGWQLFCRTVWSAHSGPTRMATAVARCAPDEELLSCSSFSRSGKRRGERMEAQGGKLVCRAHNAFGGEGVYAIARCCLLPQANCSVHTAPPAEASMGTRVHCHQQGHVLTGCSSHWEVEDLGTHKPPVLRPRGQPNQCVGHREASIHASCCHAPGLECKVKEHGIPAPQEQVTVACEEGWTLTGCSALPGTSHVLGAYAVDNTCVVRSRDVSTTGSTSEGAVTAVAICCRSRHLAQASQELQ

Row | SMILES | pIC50
1 | C[C@@H]1NC(=O)[C@@H]2CCCN2C(=O)[C@H](Cc2c[nH]c3ccc(F)cc23)NC(=O)[C@H](Cc2c[nH]c3ccc(F)cc23)NC(=O)[C@@H](C)NC(=O)[C@@H]2CCCN2C(=O)CCSCc2cccc(c2)CSCCNC(=O)[C@@H]2CCCN2C(=O)[C@H](Cc2cccc3ccccc23)NC1=O [Compound 054] (cyclo([1Nal]P[X1]P[dA][Trp(5-F)][Trp(5-F)]PA)) | 6.00 to 7.00
2 | C[C@@H]1NC(=O)[C@@H]2CCCN2C(=O)[C@H](Cc2c[nH]c3ccc(F)cc23)NC(=O)[C@H](Cc2cccc3ccccc23)NC(=O)[C@@H](C)NC(=O)[C@@H]2CCCN2C(=O)CCSCc2cccc(c2)CSCCNC(=O)[C@@H]2CCCN2C(=O)[C@H](Cc2cccc3ccccc23)NC1=O [Compound 055] (cyclo([1Nal]P[X1]P[dA][1Nal][Trp(5-F)]PA)) | 4.92 to 6.00
3 | C[C@@H]1NC(=O)[C@@H]2CCCN2C(=O)[C@H](Cc2c[nH]c3ccc(F)cc23)NC(=O)[C@H](Cc2c[nH]c3ccc(F)cc23)NC(=O)[C@@H](C)NC(=O)[C@@H]2CCCN2C(=O)CCSCc2cccc(c2)CSCCNC(=O)[C@@H]2CCCN2C(=O)[C@H](Cc2ccccc2)NC1=O [Compound 057] (cyclo(AFP[X1]P[dA][Trp(5-F)][Trp(5-F)]P)) | 6.00 to 7.00
4 | C[C@@H]1NC(=O)CCSCc2cccc(c2)CSCCNC(=O)[C@@H]2CCCN2C(=O)[C@H](Cc2ccc(O)cc2)NC(=O)[C@H](C)NC(=O)[C@@H]2CCCN2C(=O)[C@H](Cc2c[nH]c3ccc(F)cc23)NC(=O)[C@H](Cc2c[nH]c3ccc(F)cc23)NC(=O)[C@@H](C)NC1=O [Compound 058] (cyclo(AYP[X1]A[dA][Trp(5-F)][Trp(5-F)]P)) | 4.30 to 4.68
5 | C[C@@H]1NC(=O)CCSCc2cccc(c2)CSCCNC(=O)[C@@H]2CCCN2C(=O)[C@H](Cc2cccc3ccccc23)NC(=O)[C@H](C)NC(=O)[C@@H]2CCCN2C(=O)[C@H](Cc2c[nH]c3ccc(F)cc23)NC(=O)[C@H](Cc2c[nH]c3ccc(F)cc23)NC(=O)[C@@H](C)NC1=O [Compound 065] (cyclo([1Nal]P[X1]A[dA][Trp(5-F)][Trp(5-F)]PA)) | 4.30 to 4.68
6 | C[C@@H]1NC(=O)CCSCc2cccc(c2)CSCCNC(=O)[C@@H]2CCCN2C(=O)[C@H](Cc2ccccc2)N(C)C(=O)[C@H](C)NC(=O)[C@@H]2CCCN2C(=O)[C@H](Cc2c[nH]c3ccc(F)cc23)NC(=O)[C@H](Cc2cccc3ccccc23)NC(=O)[C@@H](C)NC1=O [Compound 067] (cyclo([1Nal][Trp(5-F)]PA[NMeF]P[X1]A[dA])) | 4.92 to 6.00
7 | C[C@@H]1NC(=O)CCSCc2cccc(c2)CSCCNC(=O)[C@@H]2CCCN2C(=O)[C@H](Cc2ccc3ccccc3c2)NC(=O)[C@H](C)NC(=O)[C@@H]2CCCN2C(=O)[C@H](Cc2c[nH]c3ccc(F)cc23)NC(=O)[C@H](Cc2cccc3ccccc23)NC(=O)[C@@H](C)NC1=O [Compound 079] (cyclo([1Nal][Trp(5-F)]PA[2Nal]P[X1]A[dA])) | 6.00 to 7.00
8 | C[C@@H]1NC(=O)CCSCc2cccc(c2)CSCCNC(=O)[C@@H]2CCCN2C(=O)[C@H](Cc2cccc3ccccc23)NC(=O)[C@H](C)NC(=O)[C@@H]2CCCN2C(=O)[C@H](Cc2c[nH]c3ccc(F)cc23)NC(=O)[C@H](Cc2cccc3ccccc23)NC(=O)[C@@H](C)NC1=O [Compound 080] (cyclo([1Nal]P[X1]A[dA][1Nal][Trp(5-F)]PA)) | 4.92 to 6.00
9 | C[C@@H]1NC(=O)CCSCc2cccc(c2)CSC[C@@H](C(N)=O)NC(=O)[C@@H]2CCCN2C(=O)[C@H](Cc2ccc(C#N)cc2)NC(=O)[C@H](C)NC(=O)[C@@H]2CCCN2C(=O)[C@H](Cc2c[nH]c3ccc(F)cc23)NC(=O)[C@H](Cc2c[nH]c3ccc(F)cc23)NC(=O)[C@@H](C)NC1=O [Compound 081] ([Mpa]A[dA][Trp(5-F)][Trp(5-F)]PA[Phe(4-CN)]PC-NH2; linker 1-10 via mXylylene) | 4.92 to 6.00
10 | C[C@@H]1NC(=O)CCSCc2cccc(c2)CSC[C@@H](C(N)=O)NC(=O)[C@@H]2CCCN2C(=O)[C@H](Cc2ccc(Cl)cc2)NC(=O)[C@H](C)NC(=O)[C@@H]2CCCN2C(=O)[C@H](Cc2c[nH]c3ccc(F)cc23)NC(=O)[C@H](Cc2c[nH]c3ccc(F)cc23)NC(=O)[C@@H](C)NC1=O [Compound 083] ([Mpa]A[dA][Trp(5-F)][Trp(5-F)]PA[Phe(4-Cl)]PC-NH2; linker 1-10 via mXylylene) | 4.30 to 4.68
11 | C[C@@H]1NC(=O)CCSCc2cccc(c2)CSCCNC(=O)[C@@H]2CCCN2C(=O)[C@H](Cc2ccccc2)N(C)C(=O)[C@H](C)NC(=O)[C@@H]2CCCCN2C(=O)[C@H](Cc2c[nH]c3ccc(F)cc23)NC(=O)[C@H](Cc2c[nH]c3ccc(F)cc23)NC(=O)[C@@H](C)NC1=O [Compound 088] (cyclo(A[NMeF]P[X1]A[dA][Trp(5-F)][Trp(5-F)][Pip])) | 4.30 to 4.68
12 | C[C@@H]1NC(=O)CCSCc2cccc(c2)CSCCNC(=O)[C@@H]2CCCN2C(=O)[C@H](Cc2ccc(O)cc2)NC(=O)[C@H](C)NC(=O)[C@@H]2Cc3ccccc3CN2C(=O)[C@H](Cc2c[nH]c3ccc(F)cc23)NC(=O)[C@H](Cc2c[nH]c3ccc(F)cc23)NC(=O)[C@@H](C)NC1=O [Compound 091] (cyclo(AYP[X1]A[dA][Trp(5-F)][Trp(5-F)][Tic])) | 6.00 to 7.00
13 | C[C@@H]1NC(=O)CCSCc2cccc(c2)CSCCNC(=O)[C@@H]2CCCN2C(=O)[C@H](Cc2ccc(O)cc2)NC(=O)[C@H](C)NC(=O)[C@@H]2c3ccccc3CCN2C(=O)[C@H](Cc2c[nH]c3ccc(F)cc23)NC(=O)[C@H](Cc2c[nH]c3ccccc23)NC(=O)[C@@H](C)NC1=O [Compound 092] (cyclo(AYP[X1]A[dA]W[Trp(5-F)][Tiq1c(1S)])) | 4.30 to 4.68
14 | CCC[C@@H]1NC(=O)CCSCc2cccc(c2)CSCCNC(=O)[C@@H]2CCCN2C(=O)[C@H](Cc2ccc(O)cc2)NC(=O)[C@H](C)NC(=O)[C@@H]2CCCN2C(=O)[C@H](Cc2c[nH]c3ccc(F)cc23)NC(=O)[C@H](Cc2c[nH]c3ccc(F)cc23)NC(=O)[C@@H](C)NC1=O [Compound 093] (cyclo(AYP[X1][Nva][dA][Trp(5-F)][Trp(5-F)]P)) | 4.92 to 6.00
15 | C[C@@H]1NC(=O)[C@@H]2CCCN2C(=O)[C@H](Cc2c[nH]c3ccc(F)cc23)NC(=O)[C@H](Cc2c[nH]c3ccc(F)cc23)NC(=O)[C@@H](C)NC(=O)C(C)(C)NC(=O)CCSCc2cccc(c2)CSCCNC(=O)[C@@H]2CCCN2C(=O)[C@H](Cc2ccc(O)cc2)NC1=O [Compound 094] (cyclo(AYP[X1][Aib][dA][Trp(5-F)][Trp(5-F)]P)) | 6.00 to 7.00
16 | C[C@@H]1NC(=O)[C@@H]2CCCN2C(=O)[C@H](Cc2c[nH]c3ccc(F)cc23)NC(=O)[C@H](Cc2c[nH]c3ccc(F)cc23)NC(=O)[C@@H](C)NC(=O)[C@H](C(C)(C)C)NC(=O)CCSCc2cccc(c2)CSCCNC(=O)[C@@H]2CCCN2C(=O)[C@H](Cc2ccc(O)cc2)NC1=O [Compound 095] (cyclo(AYP[X1][Tle][dA][Trp(5-F)][Trp(5-F)]P)) | 6.00 to 7.00
17 | C[C@@H]1NC(=O)[C@@H]2CCCN2C(=O)[C@H](Cc2c[nH]c3ccc(F)cc23)NC(=O)[C@H](Cc2c[nH]c3ccc(F)cc23)NC(=O)CNC(=O)CCCCCSCc2cccc(c2)CSCCNC(=O)C2CCCN2C(=O)[C@H](Cc2ccc(O)cc2)NC1=O (some centres unmarked) [Compound 098] (cyclo(AY[ξP][X8]G[Trp(5-F)][Trp(5-F)]P)) | 6.00 to 7.00
18 | C[C@@H]1NC(=O)[C@@H]2CCCN2C(=O)[C@H](Cc2c[nH]c3ccc(F)cc23)NC(=O)[C@H](Cc2c[nH]c3ccc(F)cc23)NC(=O)CNC(=O)CCCCCSCc2ccc(cc2)CSCCNC(=O)C2CCCN2C(=O)[C@H](Cc2ccc(O)cc2)NC1=O (some centres unmarked) [Compound 099] (cyclo(AY[ξP][X9]G[Trp(5-F)][Trp(5-F)]P)) | 4.92 to 6.00
19 | C[C@@]12CCCN1C(=O)[C@H](Cc1ccc(O)cc1)NC(=O)[C@H](Cc1cnc[nH]1)NC(=O)[C@@H]1CCCN1C(=O)[C@H](Cc1c[nH]c3ccc(F)cc13)NC(=O)[C@H](CC1CCCCC1)NC(=O)CNC(=O)[C@H](CCCCN)NC(=O)CCSCc1cccc(c1)CSCCNC2=O [Compound 104] (cyclo([Cha][Trp(5-F)]PHY[αMeP][X1]KG)) | 4.92 to 6.00
20 | C[C@@H](O)[C@@H]1NC(=O)CNC(=O)[C@H](CCCCN)NC(=O)CCSCc2cccc(c2)CSCCNC(=O)[C@]2(C)CCCN2C(=O)[C@H](Cc2ccc(O)cc2)NC(=O)[C@H](Cc2cnc[nH]2)NC(=O)[C@@H]2CCCN2C(=O)[C@H](Cc2c[nH]c3ccc(F)cc23)NC1=O [Compound 105] (cyclo(GT[Trp(5-F)]PHY[αMeP][X1]K)) | 6.00 to 7.00
21 | CN1C(=O)[C@H](Cc2cnc[nH]2)NC(=O)[C@@H]2CCCN2C(=O)[C@H](Cc2c[nH]c3ccc(F)cc23)NC(=O)[C@H](CC2CCCCC2)NC(=O)CNC(=O)[C@H](CCCCN)NC(=O)CCSCc2cccc(c2)CSCCNC(=O)[C@]2(C)CCCN2C(=O)[C@@H]1Cc1ccc(O)cc1 [Compound 106] (cyclo([Cha][Trp(5-F)]PH[NMeY][αMeP][X1]KG)) | 6.00 to 7.00
22 | CN1C(=O)[C@H](Cc2cnc[nH]2)NC(=O)C(C)(C)NC(=O)[C@H](Cc2c[nH]c3ccc(F)cc23)NC(=O)[C@H](Cc2c[nH]c3ccc(F)cc23)NC(=O)CNC(=O)[C@H](CCCCN)NC(=O)CCSCc2cccc(c2)CSCCNC(=O)[C@]2(C)CCCN2C(=O)[C@@H]1Cc1ccc(O)cc1 [Compound 111] (cyclo([Aib]H[NMeY][αMeP][X1]KG[Trp(5-F)][Trp(5-F)])) | 4.92 to 6.00
23 | C[C@@H]1NC(=O)CNC(=O)[C@H](CCCCN)NC(=O)CCSCc2cccc(c2)CSC[C@@H](C(N)=O)NC(=O)[C@@H]2CCCN2C(=O)[C@H](Cc2ccc(O)cc2)NC(=O)[C@H](Cc2cnc[nH]2)NC(=O)[C@H](CC(=O)O)NC(=O)[C@H](Cc2c[nH]c3ccc(F)cc23)NC1=O [Compound 112] ([Mpa]KGA[Trp(5-F)]DHYPC-NH2; linker 1-10 via mXylylene) | 6.00 to 7.00
